Results as given in patent publication US8329696B2, “Solid state forms of sitagliptin salts” (Teva Pharmaceuticals Industries Ltd., priority 2009, dated 2012).

Experiment: Retest of solid form by PXRD after storage
Type: physicochemical
Conditions: after 1 month storage
Procedure: Unless recited otherwise, X-Ray powder diffraction data was obtained by using methods known in the art using a SCINTAG powder X-Ray diffractometer model X'TRA equipped with a solid-state detector. Copper radiation of 1.5418 Å was used. A round aluminum sample holder with zero background was used. The scanning parameters included: range: 2-40 degrees two-theta; scan mode: continuous scan; step size: 0.05 deg.; and a rate of 3 deg/min.
The product was isolated by vacuum filtration and dried at 40° C. for 16 hours to obtain STG lactate crystalline form L3.

Polymorphic form found by PXRD after storage: transform to form L1
SMILES: CC(O)C(=O)O.N[C@@H](CC(=O)N1CCn2c(nnc2C(F)(F)F)C1)Cc1cc(F)c(F)cc1F [Form L3, Sitagliptin lactate]
